Experimental data: PubChem BioAssay (NCI)
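Growth conditions: 96-well plates. Treatment: test compound, 48 hours, 5 concentrations. Analysis: linear interpolation between bracketing concentrations; unreached endpoints set to highest concentration. TGI is the concentration that stops growth completely.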

Experiments:
Assay in all cases: NCI tumour cell line growth inhibition, 48 h
HL-60(TB) leukemia = test system: HL-60(TB) leukemia
OVCAR-5 ovarian = test system: OVCAR-5 ovarian
SK-MEL-5 melanoma = test system: SK-MEL-5 melanoma
M14 melanoma = test system: M14 melanoma
HT29 colon = test system: HT29 colon
T-47D breast = test system: T-47D breast
MDA-N = test system: MDA-N
SK-OV-3 ovarian = test system: SK-OV-3 ovarian
MCF7 breast = test system: MCF7 breast
HCT-15 colon = test system: HCT-15 colon
COLO 205 colon = test system: COLO 205 colon
SNB-75 CNS = test system: SNB-75 CNS
SR leukemia = test system: SR leukemia
A498 renal = test system: A498 renal
SK-MEL-2 melanoma = test system: SK-MEL-2 melanoma
NCI-H522 lung = test system: NCI-H522 lung
SK-MEL-28 melanoma = test system: SK-MEL-28 melanoma
A549 NSCLC = test system: A549 NSCLC
SW-620 colon = test system: SW-620 colon
ACHN renal = test system: ACHN renal

With O=C1C[C@H](c2ccccc2)C2(C(=O)c3ccccc3C2=O)[C@@H](c2ccccc2)C1 as the molecule, how does the TGI (HL-60(TB) leukemia) read?
Its TGI is greater than 100 µM.

What about the TGI (OVCAR-5 ovarian) of the same molecule?
Its TGI is greater than 100 µM.

What about the TGI (SK-MEL-5 melanoma) of the same molecule?
The TGI was 31 µM.

And the TGI (M14 melanoma)?
Its TGI is 95.9 µM.

And the TGI (HT29 colon)?
The TGI was greater than 100 µM.

And the TGI (T-47D breast)?
The TGI was greater than 100 µM.

What about the TGI (MDA-N) of the same molecule?
The TGI was 81 µM.

And the TGI (SK-OV-3 ovarian)?
Its TGI is greater than 100 µM.

What about the TGI (MCF7 breast) of the same molecule?
The TGI was 83 µM.

What about the TGI (HCT-15 colon) of the same molecule?
The TGI was greater than 100 µM.

What about the TGI (COLO 205 colon) of the same molecule?
The TGI was 53.6 µM.

What about the TGI (SNB-75 CNS) of the same molecule?
The TGI was greater than 100 µM.

And the TGI (SR leukemia)?
The TGI was greater than 100 µM.

What about the TGI (A498 renal) of the same molecule?
Its TGI is greater than 100 µM.

What about the TGI (SK-MEL-2 melanoma) of the same molecule?
Its TGI is 69.3 µM.

What about the TGI (NCI-H522 lung) of the same molecule?
Its TGI is greater than 100 µM.

What about the TGI (SK-MEL-28 melanoma) of the same molecule?
Its TGI is greater than 100 µM.

How did the TGI (HL-60(TB) leukemia) turn out when N#CSCC1COc2ccccc2O1 (centres undefined) was run?
The TGI was 8.66 µM.

What about the TGI (OVCAR-5 ovarian) of the same molecule?
The TGI was greater than 10 µM.

And the TGI (SK-MEL-5 melanoma)?
Its TGI is greater than 10 µM.

And the TGI (A549 NSCLC)?
The TGI was greater than 10 µM.

And the TGI (M14 melanoma)?
The TGI was greater than 10 µM.

And the TGI (HT29 colon)?
Its TGI is greater than 10 µM.

What about the TGI (T-47D breast) of the same molecule?
Its TGI is greater than 10 µM.

What about the TGI (MDA-N) of the same molecule?
The TGI was greater than 10 µM.

And the TGI (SK-OV-3 ovarian)?
The TGI was greater than 10 µM.

What about the TGI (SW-620 colon) of the same molecule?
The TGI was greater than 10 µM.

And the TGI (ACHN renal)?
The TGI was greater than 10 µM.

What about the TGI (MCF7 breast) of the same molecule?
Its TGI is greater than 10 µM.

What about the TGI (HCT-15 colon) of the same molecule?
The TGI was greater than 10 µM.

What about the TGI (COLO 205 colon) of the same molecule?
Its TGI is greater than 10 µM.

And the TGI (SNB-75 CNS)?
The TGI was greater than 10 µM.

And the TGI (SR leukemia)?
The TGI was greater than 10 µM.

And the TGI (A498 renal)?
The TGI was greater than 10 µM.

And the TGI (SK-MEL-2 melanoma)?
Its TGI is greater than 10 µM.

What about the TGI (NCI-H522 lung) of the same molecule?
The TGI was 7.05 µM.

What about the TGI (SK-MEL-28 melanoma) of the same molecule?
The TGI was greater than 10 µM.

For COc1ccc(C2C(C(=O)O)=C(COC(C)=O)Oc3cc4c(cc32)OCO4)cc1 (centres undefined), which TGI (HL-60(TB) leukemia) is on record?
The TGI was greater than 100 µM.

What about the TGI (SK-MEL-5 melanoma) of the same molecule?
The TGI was greater than 100 µM.

What about the TGI (A549 NSCLC) of the same molecule?
The TGI was greater than 100 µM.

And the TGI (M14 melanoma)?
Its TGI is greater than 100 µM.

And the TGI (HT29 colon)?
Its TGI is greater than 100 µM.

What about the TGI (SK-OV-3 ovarian) of the same molecule?
The TGI was greater than 100 µM.

And the TGI (SW-620 colon)?
The TGI was greater than 100 µM.

And the TGI (ACHN renal)?
The TGI was greater than 100 µM.

What about the TGI (HCT-15 colon) of the same molecule?
Its TGI is greater than 100 µM.

What about the TGI (COLO 205 colon) of the same molecule?
Its TGI is greater than 100 µM.

And the TGI (SNB-75 CNS)?
Its TGI is greater than 100 µM.

What about the TGI (SK-MEL-28 melanoma) of the same molecule?
Its TGI is greater than 100 µM.
